Earlier results on 1 substance are cited in article PMC6203792, “An IL13Rα2 peptide exhibits therapeutic activity against metastatic colorectal cancer” (British Journal of Cancer, 2018).

The data set addresses IL13Rα2. To be noted: read-out: affinity of IL-13/IL13Rα2 molecular recognition.

In the case of IL-13: Recombinant human IL-13, the Kd was ~0.5 nM.
